Data: PMC3191538 (Bioorganic & medicinal chemistry, 2011)
Several values for one entry are separate records, joined by “and”; a condition that tells them apart may be missing. Identical values can stand only once.

Key:
HG23 cells = assay: Cytotoxic effects on HG23 cells; format: cell-based; details: median toxic dose at 48 hr of treatment, 0-320 μM
[1] = test system: Norwalk virus 3C protease; details: unpublished data; cited from earlier work
[2] = test system: Norwalk virus (NV) replicon in HG23 cells; assay: Antiviral effect in NV replicon-harboring cells; format: cell-based; details: discussion of Table 1

Compound	TD50 (HG23 cells)	inhibition of Norwalk virus 3C protease (in words) [1]	anti-norovirus activity (in words) [2]
O=S1(=O)NCCN1Cc1cccc(Oc2ccccc2)c1 [Compound 2a, 2-(3-Phenoxybenzyl)-1,2,5-thiadiazolidine 1,1-dioxide]	50 ± 9.2 µM	does not arise from the inhibition of Norwalk virus 3C protease	–
O=S1(=O)NCCN1CC1CCCN(Cc2ccccc2)C1 (stereo not shown) [Compound 12, 1-Benzyl-3-[(1,1-dioxido-1,2,5-thiadiazolidin-2-yl)methyl]piperidine]	–	–	devoid of anti-norovirus activity
NC(=O)CN1CCN(Cc2cccc(Oc3ccccc3)c2)S1(=O)=O [Compound 13m, 2-[5-(3-Phenoxybenzyl)-1,1-dioxido-1,2,5-thiadiazolidin-2-yl]acetamide]	–	–	lacked activity
O=C(O)CN1CCN(Cc2cccc(Oc3ccccc3)c2)S1(=O)=O [Compound 14a, [5-(3-Phenoxybenzyl)-1,1-dioxido-1,2,5-thiadiazolidin-2-yl]acetic acid]	–	–	active
O=C(O)CCCCN1CCN(Cc2cccc(Oc3ccccc3)c2)S1(=O)=O [Compound 14d, 5-[5-(3-Phenoxybenzyl)-1,1-dioxido-1,2,5-thiadiazolidin-2-yl]pentanoic acid]	–	–	active
O=S1(=O)N(CCN2CCOCC2)CCN1Cc1cccc(Oc2ccccc2)c1 [Compound 17a, 4-{2-[5-(3-Phenoxybenzyl)-1,1-dioxido-1,2,5-thiadiazolidin-2-yl]ethyl}morpholine]	51 ± 3.2 µM and 49 ± 7.7 µM	–	–
